Data from US20050222036A1, “Peptide compositions with effects on blood glucose” (priority 2000, published 2005).
Marks after values point to notes of the source that are not given here.

How the values were obtained:
Format in all cases: in vivo, rat
[1] = Blood glucose in fasting rats; conditions: 24 hour fasting rats, 100 ug intraperitoneal; for Blood glucose mean ± s.e.m.: 20 minutes after administration
Experimental: Gilatide administered intraperitoneally (IP), but not intranasally (IN), lowers blood glucose levels in rats fasted for 24 hours. […] Gilatide's effect on blood glucose in fasting rats was measured. Groups of 24 hour fasting rats (n=5 or 6) were delivered either vehicle, insulin, Gilatide, GLP-1, exendin-4, Insulin A-chain, Insulin B-chain or C-peptide. Glucose levels were measured 20 minutes following intraperitoneal administration. All peptides were given at a dose of 100 ug (Table 2). In this experiment, insulin, the positive control, led to a 44% drop in blood glucose. Gilatide led to a significant drop in glucose level by 14%.

[2] = system: rats; experiment: Morris Water Maze (MWM), spatial learning in rats; conditions: modified MWM
Experimental: Spatial learning was assessed using the Morris Water Maze (Morris et al. Nature, 1982, 297: 681). Information was relayed via a tracker (HSV Image, Hampton, UK) to a personal computer, which was quantified by a specialized computer program (Water 2020, Hampton, UK). The acquisition study was performed as described previously. Animals were anaesthetized with isofluorane then administered peptide intra-nasally 20 min before testing. Rats were given four training trials. 48 h after training, a retention test was performed: rats were allowed to find the hidden platform for one trial. Mice initially had six trials without treatment to habituate them to the procedure. The following day, they were administered vehicle or [Ser(2)]exendin(1-9) (SEQ ID NO:1) and trained for an additional four trials with the platform in a new location. For a retention test, mice were given one trial to locate the platform the next day. Latency to find the platform was considered a measure of retention of spatial learning.
(§1) The elevated plus maze consists of two open and two closed arms; time spent and the number of entries into open arms are indicators of neophobic anxiety in rats. The number of entries and total time spent in the open arms were tabulated over 5 min by an observer blind to the experimental condition. Animals falling off the apparatus were eliminated from the study. For the intracerebroventricular (i.c.v.) studies, rats were implanted with a cannula (22 gauge, Plastics One, Roanoke, Va.) into the left ventricle (AP 0.8 mm, ML 1.6 mm, DV 3.5 mm from dura) then allowed at least 3-4 days to recover. The peptides were infused in a total volume of 2 μl (1 μl min −1) 25 min before training with two trials per day for 5 days. The visual platform test was conducted after the last training trial on day 5 in a different location of the pool.
In another series of experiments, rats (N=15-16) were pretreated with either Gilatide (10 μg/kg, 30 μg/kg, or 60 μg/kg) or vehicle and then trained for four trials in a Morris Water Maze. Two days following training, the rats were retested. Latency to find a submerged platform in the Morris Water Maze paradigm was measured.
Clinically approved treatments for cognitive impairment act primarily on the cholinergic system. The effects of intranasal GLP-1 and [Ser(2)]exendin(1-9) were compared with that of the cholinergic agonist arecoline on spatial learning in a modified version of the MWM (Setlow, B. et al. Learn. Mem, 2000. 7: 187). Rats were first administered vehicle, [Ser(2)]exendin(1-9), GLP-1 or arecoline, and trained for four trials to locate a submerged platform. They were then tested in a single retention trial 48 hours after initial training. There were no differences between treatments in acquisition (FIG. 10A).

[3] = system: rats; experiment: Contextual fear conditioning in rats; conditions: vs naïve and EGFP controls
Experimental: Fear conditioning was performed in a modified apparatus (MED Associates Inc., St. Albans, Vt.) housed in a sound attenuated cubicle. […] The animal was placed in the chamber and the occurrence of freezing behavior measured every 10 sec for 2 min before a shock was administered (rats, […], 2 sec; mice, 0.5 mA, 5 sec). Freezing behavior was measured again (for 5 min) the next day. The apparatus was cleaned with 1% acetic acid following conditioning of each animal.
To determine whether increasing GLP-1R levels in the hippocampus would enhance learning, rAAV vectors expressing control EGFP vector and GLP-1R were generated and injected into the hippocampus of rats. See Example 1(vi) for protocol. Three weeks following vector injection, robust hippocampal expression was obtained (data not shown) with transgene mRNA expression in the principal cell groups of the hippocampus. […] See Example 1 (vii) for protocol. A separate group of rats treated in the same manner was trained twice daily for 5 days in the MWM. […] The decrease in latency was not due to increased swimming speed (both GLP-1R and EGFP controls were approx. 23 cm/sec) nor stress effects (Table 4). Furthmore, the decreased latency was not due to a disruption in visual acuity and general locomotion and swimming ability, because rats from both groups located a visual platform in a similar manner (approx. 32±3 sec latency). […]

[4] = system: rats; experiment: Elevated plus maze test (anxiogenic effects); design: TIME Open Arm / TIME Closed Arm: unit not given here
Experimental: as §1

[5] = system: rats; experiment: Passive avoidance (PA), associative learning in rats
Experimental: Passive avoidance was performed in an apparatus (MED Associates Inc., St. Albans, Vt.) consisting of one dark chamber and one light chamber that can be divided by a guillotine door. The training procedure was executed as previously described (N. Venable et al. Psychopharmacology 100, 215 (1990)). Rats were administered a 1.0 mA shock for 3 sec, mice a 0.5 mA shock for 5 sec. Retention tests were performed either at 1, 3 or 7 days post-pairing. Maximum latency was 600 sec for rats, 300 sec for mice.
In the instant invention, rats were pretreated intranasally with one of three dose levels (10 μg/kg, 30 μg/kg, or 60 μg/kg) of Gilatide in 5% β cyclodextrin or an octamer having a sequence homology to CRH and urocortin. […] A control group received vehicle (5% cyclodextrin) alone. With three dose levels for each of the peptides studied, a total of seven (7) groups were employed, each group having 5-8 rats, for a total of 50 rats tested. On the first day of conditioning, the pretreated rats (N=7-13) were administered a single foot shock trial (0.1 mA over 3 seconds) after entering the dark compartment. The animals were replaced in the test apparatus and latencies again were measured on Days 1, 3, 7, and 21 following the aversive stimulus.
Rats were pretreated with either […] 10 μg/kg Gilatide in 5% β cyclodextrin or vehicle by one of three routes of administration: intranasally, subcutaneously, or intraperitoneally. On Day 0, the rats (N=7-13) were conditioned by administration of a single foot shock trial (0.1 mA over 3 seconds) after entry into the dark compartment of a passive avoidance apparatus (the same passive avoidance chamber used in the first series of experiments). At 24 hours (Day 1) following the initial test, and delivery of the single shock, the animals were replaced in the test apparatus and latency again measured. (FIG. 7)
Rates (N=5-10) were pretreated intranasally with one of five dose levels (0.1 μg/kg, 1 μg/kg, 3 μg/kg, 30 μg/kg or 60 μg/kg) of Gilatide in 5% β cyclodextrin, vehicle (5% cyclodextrin), or Nicotine (0.3 mg/kg, subcutaneously). On Day 0, the rats were conditioned by administration of a single foot shock trial (0.1 mA over 3 seconds) after entry into the dark compartment of a passive avoidance apparatus (the same passive avoidance chamber used in the other experiments). The preconditioned rats were retested on Days 1, 3, 7, and 21.
The effect of Gilatide was tested on memory consolidation by administering the peptide after shock testing. Rats (N=7-13) were preconditioned by administering a single foot shock trial (0.1 mA over 3 seconds) after entering the dark compartment of a passive avoidance apparatus. Twenty (20) minutes after the conditioning session, one group of rats was administered 10 μg/kg of Gilatide intranasally (TRN-TXT). Another group of rats (TXT-DLY-TRN) was administered this same dose of Gilatide 24 hours after the conditioning session. Both treatment groups were returned to the test apparatus 24 hours following treatment and latencies were again measured. […] (FIG. 13)
The effects of Gilatide when used with or without an Exendin-4 antagonist were observed and measured. Rats (N=6-13) were pretreated with either 10 μg/kg or 20 μg/kg of Gilatide with or without an Exendin-4 antagonist (10 μg/kg). A control group was administered vehicle alone. The pretreated rats were conditioned on Day 0 by administration of a single foot shock trial (0.1 mA over 3 seconds) after entry into the dark compartment of a passive avoidance apparatus (the same passive avoidance chamber used in the other experiments). The preconditioned rats were retested on 24 hours later. […] (FIG. 14)
Twenty-four hours later the rats were returned to the apparatus and retested. […] (FIG. 15)

## C peptide
[1]
  Blood glucose mean ± s.e.m.: 90.3 ± 8.9 mg/dL

## COC(=O)C1=CCCN(C)C1 [arecoline]
[2]; 48 hours after training, [Ser(2)]exendin(1-9) 30 μg intranasal, arecoline 0.3 mg s.c.
  latency to locate the submerged platform in the retention trial: significantly reduced the latency
[2]; intranasal (arecoline s.c.), four trials
  acquisition of spatial learning: did not affect acquisition of spatial learning
[3]
  freezing behavior in contextual fear conditioning: enhanced freezing behavior

## Insulin
[1]; 20 minutes
  drop in blood glucose: 44%
[1]
  Blood glucose mean ± s.e.m.: 50.7 ± 8.2 (P < 0.01) mg/dl

## C1CCc2nnnn2CC1 [PTZ]
[4]; 20 mg/kg IP
  ENTRIES Closed Arm: 1.6 ± 0.4
  ENTRIES Open Arm: 0***
  TIME Closed Arm: 249.6 ± 13.32
  TIME Open Arm: 0***

## CN1CCCC1c1cccnc1 (stereo not drawn) [nicotine]
[5]; 0.3 mg/kg subcutaneously, 24 hours
  latency in PA: modestly increased latencies

## Insulin A chain: inactive insulin fragment
[1]
  Blood glucose mean ± s.e.m.: 90.3 ± 4.7 mg/dL

## COc1cccc(-c2cc(=O)c3ccccc3o2)c1N [PD98059]
[5]; PD98059 5 μg i.c.v. before (PRE) training
  effect on enhancement of associative learning by intranasal [Ser(2)]exendin(1-9): not when given before (PRE) training
[5]; PD98059 5 μg i.c.v. immediately after training (POST)
  effect on enhancement of associative learning by intranasal [Ser(2)]exendin(1-9): completely blocked

## NC(=O)CC[C@@H]1NC(=O)[C@H](Cc2ccccc2)NC(=O)[C@H](Cc2ccc(O)cc2)NC(=O)[C@@H](N)CSSC[C@@H](C(=O)N2CCC[C@H]2C(=O)N[C@@H](CCCN=C(N)N)C(=O)NCC(N)=O)NC(=O)[C@H](CC(N)=O)NC1=O [vasopressin]
[5]; i.c.v., GLP-1 10 ng and 100 ng, [Ser(2)]exendin(1-9) 10 ng
  latency in PA: enhanced latency
[5]; intranasal, [Ser(2)]exendin(1-9) 3, 10, 30 μg, vasopressin 0.3 μg (FIG. 9A)
  latency in the PA test: increased latency

## Cc1ncc2n1-c1ccc(Cl)cc1C(c1ccccc1F)=NC2 [Midazolam]
[4]; 1.5 mg/kg IP
  ENTRIES Closed Arm: 5.1 ± 0.5
  ENTRIES Open Arm: 6.6 ± 0.7
  TIME Closed Arm: 89.2 ± 15
  TIME Open Arm: 141.3 ± 18

## Insulin B chain: inactive insulin fragment
[1]
  Blood glucose mean ± s.e.m.: 100 ± 4.9 mg/dL
